Key:
Assay in all cases: relative viability (nuclei count vs DMSO), 5 days (fraction); higher = more cells survive
Imatinib + Foretinib = compound: Cc1ccc(NC(=O)c2ccc(CN3CCN(C)CC3)cc2)cc1Nc1nccc(-c2cccnc2)n1 [Imatinib] + COc1cc2c(Oc3ccc(NC(=O)C4(C(=O)Nc5ccc(F)cc5)CC4)cc3F)ccnc2cc1OCCCN1CCOCC1 [Foretinib] (partner 0.25 µM)
Method in brief: (§1)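 Relative viability was taken as the ratio of nuclei in treated wells to nuclei in vehicle wells. Lung cancer cell lines in 1536-well plates received compounds by pin tool one day after seeding, either one drug alone or a fixed anchor-drug dose plus five library-drug doses (not always all listed) in √10 steps. Nuclei were counted on 4× images after 5 days of treatment, and values are medians of duplicate plates.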

Imatinib + Crizotinib = compound: Cc1ccc(NC(=O)c2ccc(CN3CCN(C)CC3)cc2)cc1Nc1nccc(-c2cccnc2)n1 [Imatinib] + C[C@@H](Oc1cc(-c2cnn(C3CCNCC3)c2)cnc1N)c1c(Cl)ccc(F)c1Cl [Crizotinib] (partner 1 µM)
Method in brief: as §1

Imatinib + Phenformin = compound: Cc1ccc(NC(=O)c2ccc(CN3CCN(C)CC3)cc2)cc1Nc1nccc(-c2cccnc2)n1 [Imatinib] + N=C(N)NC(=N)NCCc1ccccc1 [Phenformin] (partner 250 µM)
Method in brief: as §1

Imatinib + Vorinostat = compound: Cc1ccc(NC(=O)c2ccc(CN3CCN(C)CC3)cc2)cc1Nc1nccc(-c2cccnc2)n1 [Imatinib] + O=C(CCCCCCC(=O)Nc1ccccc1)NO [Vorinostat] (partner 1 µM)
Method in brief: as §1

| Cell Line | relative viability (Imatinib + Foretinib; first compound 0.02 µM) | relative viability (Imatinib + Foretinib; first compound 0.2 µM) | relative viability (Imatinib + Foretinib; first compound 0.6325 µM) | relative viability (Imatinib + Foretinib; first compound 2 µM) | relative viability (Imatinib + Crizotinib; first compound 0.02 µM) | relative viability (Imatinib + Crizotinib; first compound 0.06325 µM) | relative viability (Imatinib + Crizotinib; first compound 0.2 µM) | relative viability (Imatinib + Crizotinib; first compound 0.6325 µM) | relative viability (Imatinib + Crizotinib; first compound 2 µM) | relative viability (Imatinib + Phenformin; first compound 0.02 µM) | relative viability (Imatinib + Phenformin; first compound 0.2 µM) | relative viability (Imatinib + Phenformin; first compound 0.6325 µM) | relative viability (Imatinib + Phenformin; first compound 2 µM) | relative viability (Imatinib + Vorinostat; first compound 0.02 µM) | relative viability (Imatinib + Vorinostat; first compound 0.2 µM) | relative viability (Imatinib + Vorinostat; first compound 0.6325 µM) | relative viability (Imatinib + Vorinostat; first compound 2 µM) | relative viability (Imatinib + Foretinib; first compound 0.06325 µM) | relative viability (Imatinib + Phenformin; first compound 0.06325 µM) | relative viability (Imatinib + Vorinostat; first compound 0.06325 µM) |
| --- | --- | --- | --- | --- | --- | --- | --- | --- | --- | --- | --- | --- | --- | --- | --- | --- | --- | --- | --- | --- |
| HCC-15 | 1.14 | 1.05 | 0.987 | 1.09 | 0.683 | 0.779 | 0.9 | 0.792 | 0.817 | 0.502 | 0.518 | 0.451 | 0.433 | 0.857 | 0.917 | 0.854 | 0.765 | – | – | – |
| PC-3 [JPC-3] | 1.12 | 1.09 | 1.05 | 0.942 | 0.979 | – | 1.02 | 0.921 | 0.96 | 0.474 | 0.485 | 0.454 | 0.414 | 0.882 | – | 0.899 | 0.727 | – | – | – |
| LU99A | 0.772 | 0.894 | 0.857 | 0.772 | 0.53 | 0.735 | 0.534 | 0.536 | 0.532 | 0.887 | 0.77 | 0.899 | 0.785 | 0.564 | 0.471 | 0.559 | 0.564 | 0.879 | 0.923 | 0.455 |
| NCI-H596 | 0.948 | 0.931 | 0.855 | 0.832 | – | 0.991 | 1.06 | 0.928 | 0.975 | 0.73 | 0.816 | 0.693 | 0.834 | 0.648 | 0.59 | 0.586 | 0.623 | – | 0.663 | 0.481 |
| HCC-827 | 1.05 | 1.05 | 1.04 | 0.962 | 0.954 | 0.889 | 0.91 | – | 0.973 | 0.432 | 0.475 | 0.37 | 0.403 | 0.797 | 0.858 | 0.788 | 0.684 | 1.04 | 0.481 | 0.906 |
| NCI-H1734 | 1.06 | 0.939 | 0.776 | 0.87 | 0.674 | – | 0.891 | 0.642 | – | 0.382 | 0.431 | 0.368 | 0.357 | 0.92 | 0.832 | 0.856 | 0.717 | 1.2 | 0.389 | – |
| NCI-H2347 | – | 0.905 | 0.703 | 1.1 | 0.675 | 0.674 | 0.729 | 0.647 | 0.797 | 0.381 | 0.386 | 0.307 | 0.381 | 0.568 | 0.585 | 0.552 | 0.569 | – | 0.376 | – |

From the supplement of paper PMC10307832
